Results published in BindingDB's records for doi:10.1016/j.bmcl.2005.03.034 (Glaxosmithkline, 2005).

The compounds below were run against Vascular endothelial growth factor receptor 2 (Homo sapiens, UniProt P35968) (assay: Homogeneous Time-resolved Fluorescence (HTRF) Assay).
Description: The assay was using baculovirus-expressed recombinant protein kinase purified as the intracellular domain fused by GST tag, interacting with biotinylated peptide substrate. HTRF is based on the proximity of europium cryptate (donor fluorophore)-labeled antiphosphotyrosine and streptavidin labeled with APC(allophycocyanin), which have been brought together by a binding reaction. When the two entities come into close proximity and upon excitation, energy transfer occurs and APC re-emits at 665 nm.

Chain of Vascular endothelial growth factor receptor 2 (P35968 whole entry, the tested form may be a part): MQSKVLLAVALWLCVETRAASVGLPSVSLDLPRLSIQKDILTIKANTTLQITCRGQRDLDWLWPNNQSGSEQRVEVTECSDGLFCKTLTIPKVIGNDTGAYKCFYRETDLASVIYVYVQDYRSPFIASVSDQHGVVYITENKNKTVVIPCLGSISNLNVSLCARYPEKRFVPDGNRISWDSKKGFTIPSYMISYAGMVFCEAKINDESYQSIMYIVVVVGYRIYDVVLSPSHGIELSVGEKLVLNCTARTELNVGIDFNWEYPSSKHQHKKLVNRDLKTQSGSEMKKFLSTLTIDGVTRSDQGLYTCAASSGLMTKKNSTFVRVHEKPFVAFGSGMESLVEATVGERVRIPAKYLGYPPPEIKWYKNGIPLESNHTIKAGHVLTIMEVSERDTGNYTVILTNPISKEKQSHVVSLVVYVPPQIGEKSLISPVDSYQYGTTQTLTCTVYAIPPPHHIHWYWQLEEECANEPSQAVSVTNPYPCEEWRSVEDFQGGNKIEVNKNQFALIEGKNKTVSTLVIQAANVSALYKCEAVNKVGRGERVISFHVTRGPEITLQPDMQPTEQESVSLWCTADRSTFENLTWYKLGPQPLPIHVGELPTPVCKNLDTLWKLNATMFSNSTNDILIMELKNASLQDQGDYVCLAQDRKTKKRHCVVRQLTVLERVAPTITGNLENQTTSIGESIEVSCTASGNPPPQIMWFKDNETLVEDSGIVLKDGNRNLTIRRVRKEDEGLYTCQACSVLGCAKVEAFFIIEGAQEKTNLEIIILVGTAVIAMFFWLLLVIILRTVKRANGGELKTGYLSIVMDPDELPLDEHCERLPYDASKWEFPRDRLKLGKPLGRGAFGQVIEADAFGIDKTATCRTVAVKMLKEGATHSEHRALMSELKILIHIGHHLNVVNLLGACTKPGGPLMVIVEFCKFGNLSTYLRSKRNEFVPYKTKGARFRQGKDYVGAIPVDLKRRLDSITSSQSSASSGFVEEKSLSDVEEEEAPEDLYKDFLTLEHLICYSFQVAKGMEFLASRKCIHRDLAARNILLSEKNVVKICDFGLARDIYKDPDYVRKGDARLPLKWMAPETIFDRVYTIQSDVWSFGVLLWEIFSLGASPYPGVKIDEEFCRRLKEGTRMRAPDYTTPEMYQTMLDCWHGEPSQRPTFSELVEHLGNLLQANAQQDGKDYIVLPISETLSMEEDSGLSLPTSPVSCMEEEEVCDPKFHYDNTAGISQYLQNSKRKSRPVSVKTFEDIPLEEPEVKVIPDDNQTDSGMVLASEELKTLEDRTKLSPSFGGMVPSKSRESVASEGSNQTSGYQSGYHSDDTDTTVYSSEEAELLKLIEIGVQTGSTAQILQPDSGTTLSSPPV

| IC50 [nM] | SMILES |
| --- | --- |
| 176 | CN(c1ccc(NC(=O)Cc2ccccc2)cc1)c1ccnc(Nc2cccc(CS(C)(=O)=O)c2)n1 [N-{4-[(2-{[3-(methanesulfonylmethyl)phenyl]amino}pyrimidin-4-yl)(methyl)amino]phenyl}-2-phenylacetamide] |
| 5 | CN(c1ccc(NC(=O)Nc2ccccc2)cc1)c1ccnc(Nc2cccc(S(N)(=O)=O)c2)n1 [3-{4-[methyl({2-[(3-sulfamoylphenyl)amino]pyrimidin-4-yl})amino]phenyl}-1-phenylurea] |
| 269 | CN(c1ccc(NS(=O)(=O)Cc2ccccc2)cc1)c1ccnc(Nc2cccc(CS(C)(=O)=O)c2)n1 [N-{4-[(2-{[3-(methanesulfonylmethyl)phenyl]amino}pyrimidin-4-yl)(methyl)amino]phenyl}-1-phenylmethanesulfonamide] |
| 18 | CN(c1ccc(NC(=O)Nc2ccccc2)cc1)c1ccnc(Nc2cccc(CS(C)(=O)=O)c2)n1 [3-{4-[(2-{[3-(methanesulfonylmethyl)phenyl]amino}pyrimidin-4-yl)(methyl)amino]phenyl}-1-phenylurea] |
| 117 | CN(c1ccc(NC(=S)Nc2ccccc2)cc1)c1ccnc(Nc2cccc(CS(C)(=O)=O)c2)n1 [3-{4-[(2-{[3-(methanesulfonylmethyl)phenyl]amino}pyrimidin-4-yl)(methyl)amino]phenyl}-1-phenylthiourea] |
| 324 | CN(c1ccc(NC(=N)Nc2ccccc2)cc1)c1ccnc(Nc2cccc(CS(C)(=O)=O)c2)n1 [1-{4-[(2-{[3-(methanesulfonylmethyl)phenyl]amino}pyrimidin-4-yl)(methyl)amino]phenyl}benzeneguanidine] |

| SMILES | IC50 [nM] |
| --- | --- |
| CN(c1ccc(NC(=O)Oc2ccccc2)cc1)c1ccnc(Nc2cccc(CS(C)(=O)=O)c2)n1 [phenyl N-{4-[(2-{[3-(methanesulfonylmethyl)phenyl]amino}pyrimidin-4-yl)(methyl)amino]phenyl}carbamate] | 95 |
